Several values for one entry are separate records, joined by “and”; a condition that tells them apart may be missing. Equal entries are not always repeated. Where two headings read alike, the source gives them in different places. Marks after values point to notes of the source that are not given here.
What was measured:
[1] = system: dogs with chronic idiopathic epilepsy; test: add-on therapy in dogs with chronic idiopathic epilepsy not responding to phenobarbital or primidone; assay type: in vivo, dog
[2] = plasma concentration of AWD 131-138 (HPLC/mass spectrometry); assay type: in vivo, dog; settings: for concentration at 12 h: 12 hours after application
Method: A pharmacokinetic study was performed at the beginning of treatment in 2 dogs with AWD 131-138 monotherapy and in 4 dogs with a combination therapy of AWD 131-138 and phenobarbital or primidone. All 6 dogs received 5 mg/kg bodyweight AWD 131-138. Blood was taken 3 times every 2 hours. […] The same method was used as a compliance control during the follow up examinations. Blood was taken two and twelve hours after oral administration of AWD 131-138.
In six dogs entering the pilot study with AWD 131-138 a pharmacokinetic study was performed. AWD 131-138 was measured in plasma samples two, four and six hours after application. The initial dosage of AWD 131-138 was 5 mg/kg bodyweight p.o. in all cases.

[3] = system: chemically induced seizure threshold; settings: dogs, cited from earlier work
[4] = system: benzodiazepine binding site of the GABAA receptor; settings: broad receptor screen; cited from earlier work
[5] = system: cloned human GABA receptor complexes; settings: cited from earlier work
benzodiazepine receptor = settings: co administration of flumazenil; cited from earlier work
[6] = monkeys; cited from earlier work
[7] = self administration paradigm; cited from earlier work
calcium channel = settings: cited from earlier work
[8] = side effects: owner questionnaire and follow up examinations with blood work
[9] = system: dogs with newly diagnosed idiopathic epilepsy; test: monotherapy in dogs with newly diagnosed idiopathic epilepsy (AWD 131-138 pilot study; retrospective phenobarbital, primidone)
[10] = grand mal seizures, add-on to phenobarbital or primidone
[11] = grand mal seizures, on phenobarbital or primidone before add-on
[12] = median, on phenobarbital/primidone before add-on
[13] = 12 newly diagnosed dogs, monotherapy
[14] = add-on, abnormalities already at the beginning of the study
[15] = grand mal seizures, baseline before monotherapy
[16] = grand mal seizures, monotherapy
[17] = median group value, baseline before monotherapy
[18] = median group value, monotherapy, asterisk = P<0.05 vs before

With `O=C1N=C(N2CCOCC2)CN1c1ccc(Cl)cc1` [AWD 131-138, 1-(4-chlorophenyl)-4-(4-morpholinyl)-2,5-dihydro-1H-imidazol-2-one] the “comparison of antiepileptic efficacy between the two add on treatment schedules” value ([1]; Fisher's exact test) was “did not indicate any significant difference”, the “decrease of number of seizures per cluster, mean” value ([1]; add-on) was 39.5% and the “dogs in which clusters did not occur anymore” value ([1]; add-on) was “three”. For the same compound, the “dogs in which focal seizures replaced grand mal seizures partially” value ([1]; add-on) was “nine”, the “dogs with a seizure reduction under 50%” value ([1]; add-on) was 4 and the “dogs with decreased number of seizures per cluster” value ([1]; add-on) was 4. For the same compound, the “dogs with worsening of seizure severity reported by owner” value ([1]; add-on) was “One”, the “number of dogs with decreased duration of the ictus” value ([1]; add-on) was 3 and the “number of dogs with shortened postictal phase” value ([1]; add-on) was “ten”. For the same compound, the “owners reporting subjectively a decrease of seizure severity” value ([1]; add-on) was “eight of seventeen”, the “postictal phase during treatment, mean” value ([1]; add-on) was 5.5 h and the “dogs that died or were euthanized in status epilepticus” value ([1]; add-on to phenobarbital or primidone) was “Nine”. The “shortening of the postictal phase, mean” value ([1]; add-on, in the dogs with shortening) was 54%, the “duration of the ictus during treatment, median” value [1, 10] was 2.0 min and the “duration of the ictus during treatment, time range” value [1, 10] was 0.5 to 5 min. The “duration of the ictus before treatment, median” value [1, 11] was 2.0 min, the “duration of the ictus before treatment, time range” value [1, 11] was 0.5 to 10 min and the “% reduction of seizures in responders” value ([1]; mean ± SEM, add-on to phenobarbital/primidone) was 47.2 ± 8.8%. The “Seizure frequency during treatment, all dogs” value ([1]; median, add-on to phenobarbital/primidone) was 2.0 seizures/month, the “Seizure frequency during treatment, without nonresponders” value ([1]; median, add-on to phenobarbital/primidone, asterisk = P<0.05) was 1.1* seizures/month and the “Seizure frequency before treatment, all dogs” value [1, 12] was 1.9 seizures/month. For the same compound, the “Seizure frequency before treatment, without nonresponders” value [1, 12] was 2.4 seizures/month, the “AWD 131-138 plasma concentration” value ([2]; 2 hours after 5 mg/kg p.o., AWD 131-138 monotherapy, individual dogs) was 720.0 ng/mL and 2579.2 ng/mL and the “AWD 131-138 plasma concentration” value ([2]; 2 hours after 5 mg/kg p.o., phenobarbital combination therapy, individual dogs) was 23.27 ng/mL and 1019.5 ng/mL. For the same compound, the “AWD 131-138 plasma concentration” value ([2]; 2 hours after 5 mg/kg p.o., primidone combination therapy, individual dogs) was 2392.3 ng/mL, the “AWD 131-138 plasma concentration” value ([2]; 4 hours after 5 mg/kg p.o., AWD 131-138 monotherapy, individual dogs) was 702.7 ng/mL and 1461.0 ng/mL and the “AWD 131-138 plasma concentration” value ([2]; 4 hours after 5 mg/kg p.o., phenobarbital combination therapy, individual dogs) was “Bld”. The “AWD 131-138 plasma concentration” value ([2]; 4 hours after 5 mg/kg p.o., primidone combination therapy, individual dogs) was 1021.5 ng/mL and 2438.7 ng/mL, the “AWD 131-138 plasma concentration” value ([2]; 6 hours after 5 mg/kg p.o., AWD 131-138 monotherapy, individual dogs) was 229.5 ng/mL and 709.0 ng/mL and the “AWD 131-138 plasma concentration” value ([2]; 6 hours after 5 mg/kg p.o., phenobarbital combination therapy, individual dogs) was “bld (bld (below limit of detection): <2 ng/mL)”. The “AWD 131-138 plasma concentration” value ([2]; 6 hours after 5 mg/kg p.o., primidone combination therapy, individual dogs) was 448.1 ng/mL and 1289.0 ng/mL, the concentration at 2 h ([2]; dog, plasma, oral, 5 mg/kg bodyweight, 2 hours after 5 mg/kg p.o., primidone combination therapy, individual dogs, read-out: AWD 131-138 plasma concentration) was 1520 ng/mL and the concentration at 4 h ([2]; dog, plasma, oral, 5 mg/kg bodyweight, 4 hours after 5 mg/kg p.o., phenobarbital combination therapy, individual dogs) was 174 ng/mL. The concentration at 6 h ([2]; dog, plasma, oral, 5 mg/kg bodyweight, 6 hours after 5 mg/kg p.o., phenobarbital combination therapy, individual dogs) was 19.5 ng/mL, the concentration at 2 h ([2]; dog, plasma, oral, 30 mg/kg, 2 hours after application, 30 mg/kg, non responder dog that died in status epilepticus, read-out: AWD 131-138 plasma concentration) was 4000 ng/mL and the concentration at 2 h ([2]; dog, plasma, oral, 40 mg/kg/day, 2 hours after application, 40 mg/kg per day, two dogs with ataxia on combined phenobarbital treatment, read-out: AWD 131-138 plasma concentration, range) was 5560 to 10900 ng/mL. For the same compound, the concentration at 2 h ([2]; dog, plasma, oral, chronic epilepsy add on, 2 hours after application, 10-15 mg/kg twice a day, seventeen dogs, read-out: AWD 131-138 plasma concentration, range) was 280 to 10600 ng/mL, the concentration at 2 h ([2]; dog, plasma, oral, chronic epilepsy add on, 2 hours after application, read-out: AWD 131-138 plasma concentration, mean) was 3900 ng/mL and the concentration at 2 h ([2]; dog, plasma, oral, chronic epilepsy add on, 2 hours after application, read-out: AWD 131-138 plasma concentration, median) was 2990 ng/mL. For the same compound, the concentration at 12 h ([2]; dog, plasma, oral, chronic epilepsy add on, read-out: AWD 131-138 plasma concentration, mean) was 644 ng/mL, the concentration at 12 h ([2]; dog, plasma, oral, chronic epilepsy add on, read-out: AWD 131-138 plasma concentration, median) was 179 ng/mL and the concentration at 12 h ([2]; dog, plasma, oral, chronic epilepsy add on, read-out: AWD 131-138 plasma concentration, range) was 7.57 to 5870 ng/mL. It also gave a concentration at 2 h ([2]; dog, plasma, oral, newly diagnosed dogs, three weeks of treatment, 2 hours after oral application, 10-20 mg/kg twice a day, eleven cases, read-out: AWD 131-138 plasma concentration, range) of 53.3 to 8620 ng/mL, a concentration at 12 h ([2]; dog, plasma, oral, newly diagnosed dogs, three weeks, twelve dogs, read-out: AWD 131-138 plasma concentration, range) of 5.4 to 1140 ng/mL and a concentration at 12 h ([2]; dog, plasma, oral, newly diagnosed dogs, three weeks, read-out: AWD 131-138 plasma concentration, mean) of 378 ng/mL. The concentration at 12 h ([2]; dog, plasma, oral, newly diagnosed dogs, three weeks, read-out: AWD 131-138 plasma concentration, median) was 218 ng/mL, the concentration at 2 h ([2]; dog, plasma, po, newly diagnosed dogs, three weeks, 2 hours after oral application, read-out: AWD 131-138 plasma concentration, mean) was 3360 ng/mL and the concentration at 2 h ([2]; dog, plasma, po, newly diagnosed dogs, three weeks, 2 hours after oral application, read-out: AWD 131-138 plasma concentration, median) was 2580 ng/mL. The “increase of seizure threshold (PTZ convulsive threshold)” value ([3]; 20 mg/kg p.o.) was 39%, the “increase of seizure threshold (PTZ convulsive threshold)” value ([3]; 40 mg/kg p.o.) was 118% and the “affinity for the benzodiazepine binding site” value [4] was “very low affinity”. For the same compound, the “mode of action at the benzodiazepine receptor” value ([5]; different cloned human GABA receptor complexes) was “low affinity partial agonist at the benzodiazepine receptor without subtype selectivity”, the maximal stimulation ([5]; of the effect of diazepam) was 20% and the “antagonism of anticonvulsive activity by flumazenil” value (benzodiazepine receptor) was “partly antagonised”. The “antagonism of anxiolytic activity by flumazenil” value (benzodiazepine receptor) was “fully antagonised”, the “identified as benzodiazepine like” value [6] was “did not identify AWD 131-138 as benzodiazepine like” and the substitution for cocaine [7] was “did not substitute for cocaine”. For the same compound, the “calcium channel blocking effect” value (calcium channel) was “weak calcium channel blocking effect”, the sedation [8, 13] was “no sedation occurred” and the tolerability [8, 13] was “exceptionally well tolerated”. The “hematology and blood chemistry” value ([8]; 12 newly diagnosed dogs, monotherapy, follow up) was “No abnormalities were found”, the “polyphagia, cases” value ([8]; 12 newly diagnosed dogs, monotherapy, in 4 dogs only at the beginning) was 7 (58%) and the tolerability ([8]; 17 dogs with chronic epilepsy, add-on) was “very well tolerated”. The “hematology (red, white and differential cell count)” value ([8]; 17 dogs with chronic epilepsy, add-on, follow up) was “No abnormalities were found”, the “polyphagia, cases” value ([8]; 17 dogs with chronic epilepsy, add-on, in 7 dogs only at the beginning) was 10 (59%) and the “elevation of liver enzymes (ALT, GLDH and AP)” value ([8]; AWD 131-138 monotherapy) was “not observed”. The “dogs with ataxia in the hind limbs and apathy 2 4 hours after application” value ([8]; add-on, 40 mg/kg per day, combined phenobarbital with serum concentrations 56.6 58.9 μg/mL) was “Two”, the “dogs with elevation of ALT” value [8, 14] was 1 and the “dogs with elevation of AP” value [8, 14] was 6. For the same compound, the “dogs with elevation of GLDH” value [8, 14] was 3, the “comparison of antiepileptic efficacy between monotherapy treatment groups” value ([9]; ANOVA) was “did not indicate any significant differences” and the “duration of the ictus before treatment, median” value [9, 15] was 3.0 min. For the same compound, the “duration of the ictus before treatment, time range” value [9, 15] was 0.5 to 10 min, the “duration of the ictus during treatment, median” value [9, 16] was 2.5 min and the “duration of the ictus during treatment, time range” value [9, 16] was 0.5 to 10 min. The “% reduction of seizures in responders” value ([9]; mean ± SEM, monotherapy) was 49.8 ± 11.3%, the “Seizure frequency before treatment, all dogs” value [9, 17] was 1.6 seizures/month and the “Seizure frequency before treatment, without nonresponders” value [9, 17] was 1.7 seizures/month. For the same compound, the “Seizure frequency during treatment, all dogs” value [9, 18] was 0.71 seizures/month, the “Seizure frequency during treatment, without nonresponders” value [9, 18] was 0.55* seizures/month and the “dogs that died or were euthanized in status epilepticus” value ([9]; monotherapy) was “One”. The “dogs with focal seizures instead of grand mal seizures during treatment” value ([9]; monotherapy) was “two”, the “dogs with reduced seizure number per cluster” value ([9]; monotherapy) was 4 and the “number of dogs with decreased duration of the ictus” value ([9]; monotherapy) was “five”. For the same compound, the “number of dogs with shortened postictal phase” value ([9]; monotherapy) was “four”, the “owners reporting subjectively a decrease of seizure severity” value ([9]; monotherapy) was “nine of 12” and the “reduction of seizure number per cluster, mean” value ([9]; monotherapy) was 45.3%. For the same compound, the “dogs in which clusters no longer developed” value ([9]; monotherapy, dogs with clusters before treatment) was “One” and the “decrease of the duration of the ictus, mean” value ([9]; monotherapy, in the dogs with a decrease) was 38%.

Reference: patent US9469611B2, “Use of dihydroimidazolones for the treatment of dogs” (BOEHRINGER INGELHEIM VETMEDICA GMBH, priority 2002, dated 2016)
